Assay results: US7811609B2, “Use of metal compounds to treat gastrointestinal infections” (priority 2000, dated 2010)
Like-named read-outs stand apart in the source and are kept apart here.

Key:
Pseudomonas aeruginosa [1] = conditions: extrapolated from survival rates; protein broth then phosphate-buffered saline; Zhao et al 1998; cited from earlier work
Helicobacter pylori [2] = assay: MIC against Helicobacter pylori by two fold serial dilution in growth medium; format: cell-based; conditions: for Average Selectivity Ratio: (Sum of MIC values against all bacteria except H. pylori ÷ No. of MIC values) ÷ MIC value for H. pylori; for Mean ratio pH 4:pH 7, first value: Strain 1 (Chloride: against first pH 7 value); for MIC, Strain 1 (pH 7): pH 7 (first value where two are given); for Mean ratio pH 4:pH 7, second value: Strain 2 (Chloride: Strain 1 against second pH 7 value); for MIC, pH 4-7: pH 4-7: pH of the media changes during the experiment from acidic start
Protocol: (§1) Solutions of metal salts were prepared by dilution of the metal salt, optionally together with the ligand, in ultra-high-purity water. The pH values were adjusted to 7 with concentrated sodium hydroxide. The solutions were γ irradiated for 20 to 30 minutes for sterilisation, and then diluted ten fold in the bacterial growth medium to be used.
(§2) A gradient of concentration was obtained by two fold serial dilutions of the medium. The concentrations of metals were analysed by inductively coupled plasma spectrometry. Each dilution was inoculated with the different bacteria to be tested, by multi-point inoculating on the agar media, or suspending in the broth media.
The presence or absence of bacterial growth was reported within the concentration gradient and the minimum concentration of complex in the medium that inhibits totally the bacterial growth (MIC) was determined. The growth on an agar plate was detected by the presence of colonies, and by turbidity in the broth media. The bacteria were identified by the Gram morphology test. Helicobacter pylori growth was also confirmed by biochemical test on the catalase, urease and oxidase activity.

Klebsiella = assay: MIC against Klebsiella; format: cell-based; conditions: for MIC, Klebsiella: Table 4
E. coli = conditions: extrapolated from survival rates; protein broth then phosphate-buffered saline; Zhao et al 1998; cited from earlier work
Enterococcus faecalis = assay: MIC against Enterococcus faecalis; format: cell-based; conditions: for MIC, Ent faecalis: Table 4
Echerichia coli = assay: MIC against Echerichia coli; format: cell-based; conditions: for MIC, E. coli: Table 4
Staphylococcus aureus = assay: MIC against Staphylococcus aureus; format: cell-based; conditions: for MIC, Staphylococcus (aureus or Oxford Staph): Table 4
Pseudomonas aeruginosa [3] = assay: MIC against Pseudomonas aeruginosa; format: cell-based; conditions: for MIC, Pseudomonas aeruginosa: Table 4
[4] = tested on: Staphylococcus (aureus or Oxford Staph); conditions: extrapolated from survival rates; protein broth then phosphate-buffered saline; Zhao et al 1998; cited from earlier work
[5] = tested on: Coagulase negative staphylococcus; assay: MIC against coagulase negative staphylococcus; format: cell-based; conditions: Mueller-Hinton agar with 2% horse serum and isosensitest agar with 5% horse blood; several strains
[6] = Tolerance study in patients with H. pylori infection; format: in vivo, human; conditions: six patients; 20 mg/day cobalt (10 mg b.d) for two weeks; oral capsules or solution
Protocol: In a tolerance study, six patients with H. pylori infection ingested a low dose of 20 mg/day cobalt, as cobalt chloride (10 mg b.d), for two weeks. […] In one patient the cobalt was taken also with a proton pump inhibitor (Lansoprazole) while the remaining 5 took cobalt alone as capsules (4 patients) or a solution (1 patient). 3 of these patients had gastritis and/or duodenitis with a duodenal ulcer also in one of these three. The other 3 had oesophagitis and/or normal stomach and duodenum.

other bacteria = assay: MIC against other bacteria; format: cell-based; conditions: 32 mg/l = estimate limit between active and non-active metals
Helicobacter pylori [7] = conditions: for growth in the medium: Ax 0 mg/l
Protocol: as §1, §2
Media were incubated for Helicobacter pylori in a microaerobic atmosphere (gas jar containing a CampyGen® pack, 5% O2-10% CO2-85% N2 by volume) with constant shaking (orbital shaker, 140 rpm) at 37° C. for five days.
The presence or absence of bacterial growth was reported within the concentration gradient and the minimum concentration of complex in the medium that inhibits totally the bacterial growth (MIC) was determined. The growth on an agar plate was detected by the presence of colonies, and by turbidity in the broth media. […] Helicobacter pylori growth was also confirmed by biochemical test on the catalase, urease and oxidase activity.

Enterococcus faecium = assay: MIC against Enterococcus faecium; format: cell-based; conditions: Mueller-Hinton agar with 2% horse serum and isosensitest agar with 5% horse blood; several strains
Helicobacter pylori [8] = assay: Inhibition of Helicobacter pylori growth over time in the STH medium (FIG. 1, cfu/ml against time); format: cell-based; conditions: cobalt 2.00 ppm
Source text: FIG. 1 is a graph showing the inhibition of H. pylori growth by cobalt (cobaltous chloride) in the STH medium.
I50=inhibition of 50% of the Helicobacter pylori inoculated by cobaltous chloride. Concentration of cobalt in the medium was 2.00 ppm.

[9] = STH broth, NCTC 11637 and seven clinical isolates
[10] = Mueller-Hinton agar with 2% horse serum and isosensitest agar with 5% horse blood, several strains

In the case of [Cl-].[Cl-].[Zn+2] [Zn^2+], the “MIC, Pseudomonas aeruginosa (footnote a)” value (Pseudomonas aeruginosa [1]) is listed as 1.7^a, the “Average Selectivity Ratio” value (Helicobacter pylori [2]) is listed as 0.76 and the “MIC” value (Helicobacter pylori [2]; [9]) is listed as >32 µg/mL. The “MIC, H. pylori” value (Helicobacter pylori [2]; Table 4) was >32/32, the “MIC, H. pylori, first of two values” (Helicobacter pylori [2]; Table 4) was >32/32 and the MIC, Klebsiella (Klebsiella) was > 32 µg/mL. The “MIC, E. coli (footnote a)” value (E. coli) was 17^a, the MIC, Ent faecalis (Enterococcus faecalis) was > 32 µg/mL and the MIC, E. coli (Echerichia coli) was > 32 µg/mL. For the same molecule, the MIC, Staphylococcus (aureus or Oxford Staph) (Staphylococcus aureus) was > 32 µg/mL, the MIC, Pseudomonas aeruginosa (Pseudomonas aeruginosa [3]) was > 32 µg/mL and the “MIC, Staphylococcus (aureus or Oxford Staph) (footnote a)” value (shortened to “MIC, Staphylococcus … (footnote a)”) [4] was 17^a.

For CC(=O)[O-].CC(=O)[O-].[Co+2] [Co acetate], the “Mean ratio pH 4:pH 7, first value” (Helicobacter pylori [2]) was 0.054, the “MIC, Strain 1 (pH 4)” value (Helicobacter pylori [2]; Strain 1) was 0.11 and the “MIC, Strain 1 (pH 7)” value (Helicobacter pylori [2]; Strain 1) was 2.03. For the same molecule, the “Mean ratio pH 4:pH 7, second value” (Helicobacter pylori [2]) was 0.11, the “MIC, Strain 2 (pH 4)” value (Helicobacter pylori [2]) was 0.11 and the “MIC, Strain 2 (pH 7)” value (Helicobacter pylori [2]; pH 7) was 1.01. For the same molecule, the “MIC, pH 4-7” value (Helicobacter pylori [2]) was 0.125 mg/l and the “MIC, pH 7” value (Helicobacter pylori [2]; pH 7) was 0.5-2 mg/l.

For [Cl-].[Cl-].[Co+2] [Co chloride, cobalt (II) chloride], the “MIC” value [5] is listed as >32 µg/mL, the “MIC, Pseudomonas aeruginosa (footnote a)” value (Pseudomonas aeruginosa [1]) is listed as 2.3^a and the adverse effects [6] is listed as “no reported adverse effects”. The “activity (MIC) against other bacteria” value (other bacteria) was > 32 µg/mL, the “Average Selectivity Ratio” value (Helicobacter pylori [2]) was 434 and the “MIC” value (Helicobacter pylori [2]; [9]) was 0.03 to 0.6 µg/mL. For the same molecule, the “MIC (mg/l), median” value (Helicobacter pylori [2]; STH broth, NCTC 11637 and seven clinical isolates, median) was 0.06 mg/L, the “Mean ratio pH 4:pH 7, first value” (Helicobacter pylori [2]) was 0.5 and the “MIC, Strain 1 (pH 4)” value (Helicobacter pylori [2]; Strain 1) was 0.015. The “MIC, Strain 1 (pH 7)” value (Helicobacter pylori [2]; Strain 1) was 0.03, the “MIC, Strain 1 (pH 7), second value” (Helicobacter pylori [2]; Strain 1, pH 7, second of x/y) was 0.125 and the “Mean ratio pH 4:pH 7, second value” (Helicobacter pylori [2]) was 0.12. For the same molecule, the “MIC, H. pylori, range in brackets” value (Helicobacter pylori [2]; Table 4) was “(<0.03-0.125)”, the MIC, H. pylori (Helicobacter pylori [2]; Table 4, main value) was 0.06 µg/mL and the “activity against H. pylori at pH 4 relative to pH 7” value (Helicobacter pylori [2]; Table 5) was “about 10 fold”. The “kind of action against H. pylori” value (Helicobacter pylori [2]; found by measuring the MIC) was “not only bacteriostatic (i.e. inhibitory of growth), but also bactericidal”, the “minimum inhibitory concentration (MIC)” value (Helicobacter pylori [2]; in vitro, Co^2+ as cobalt chloride) was 0.06 µg/mL and the “MIC, pH 4-7” value (Helicobacter pylori [2]) was 0.03-0.4 mg/l. For the same molecule, the “MIC, pH 7” value (Helicobacter pylori [2]; pH 7) was 0.06-0.4 mg/l, the “activity against the H. pylori strain deprived of its urease enzyme” value (Helicobacter pylori [2]; urease-deprived strain) was “active” and the “growth in the medium” value (Helicobacter pylori [7]; Co 0.0015 mg/l) was “+”. For the same molecule, the “growth in the medium” value (Helicobacter pylori [7]; Co 0.004 mg/l) was “+”, the “growth in the medium” value (Helicobacter pylori [7]; Co 0.008 mg/l) was “+” and the “growth in the medium” value (Helicobacter pylori [7]; Co 0.030 mg/l) was “−”. For the same molecule, the “growth in the medium” value (Helicobacter pylori [7]; Co 0.060 mg/l) was “−”, the “growth in the medium” value (Helicobacter pylori [7]; Co 0.120 mg/l) was “−” and the “MIC of cobalt (no amoxycillin)” value (Helicobacter pylori [7]; no amoxycillin) was “MIC of cobalt (no amoxycillin): 0.030 mg/l”. For the same molecule, the “MIC” value (Klebsiella; [10]) was >32 µg/mL, the MIC, Klebsiella (Klebsiella) was > 32 µg/mL and the “MIC, E. coli (footnote a)” value (E. coli) was 22.97^a. The “MIC” value (Enterococcus faecium) was >32 µg/mL, the “MIC” value (Enterococcus faecalis; [10]) was >32 µg/mL and the MIC, Ent faecalis (Enterococcus faecalis) was > 32 µg/mL. For the same molecule, the “MIC” value (Echerichia coli; [10]) was >32 µg/mL, the MIC, E. coli (Echerichia coli) was > 32 µg/mL and the “MIC” value (Staphylococcus aureus; [10]) was >32 µg/mL. For the same molecule, the MIC, Staphylococcus (aureus or Oxford Staph) (Staphylococcus aureus) was > 32 µg/mL, the “MIC” value (Pseudomonas aeruginosa [3]; [10]) was >32 µg/mL and the MIC, Pseudomonas aeruginosa (Pseudomonas aeruginosa [3]) was > 32 µg/mL. The “MIC, Staphylococcus … (footnote a)” value [4] was 22.97^a, the “time to I50 (inhibition of 50% of the Helicobacter pylori inoculated)” value (Helicobacter pylori [8]) was 5 h and the “time to total inhibition” value (Helicobacter pylori [8]) was 8 h.

With O=[N+]([O-])[O-].O=[N+]([O-])[O-].O=[N+]([O-])[O-].[Cr+3] [Cr^2+ (chromium nitrate), chromium nitrate, reference compound] the “MIC” value (Helicobacter pylori [2]; [9]) was >32 µg/mL.

For [O]=[Mo](=[O])=[O] [Mo^6+ (molybdenum oxide), molybdenum oxide, reference compound], the “MIC” value (Helicobacter pylori [2]; [9]) was >32 µg/mL.

In the case of [Ni+2] [Ni^2+], the “MIC, Pseudomonas aeruginosa (footnote a)” value (Pseudomonas aeruginosa [1]) is given as 22.89^a, the “Average Selectivity Ratio” value (Helicobacter pylori [2]) is given as 0.89 and the “MIC” value (Helicobacter pylori [2]; [9]) is given as >32 µg/mL. For the same molecule, the “MIC, H. pylori” value (Helicobacter pylori [2]; Table 4) was >32/>32, the “MIC, H. pylori, first of two values” (Helicobacter pylori [2]; Table 4) was >32/>32 and the MIC, Klebsiella (Klebsiella) was > 32 µg/mL. The “MIC, E. coli (footnote a)” value (E. coli) was 22.89^a, the MIC, Ent faecalis (Enterococcus faecalis) was > 32 µg/mL and the MIC, E. coli (Echerichia coli) was > 32 µg/mL. The MIC, Staphylococcus (aureus or Oxford Staph) (Staphylococcus aureus) was > 32 µg/mL, the MIC, Pseudomonas aeruginosa (Pseudomonas aeruginosa [3]) was > 32 µg/mL and the “MIC, Staphylococcus … (footnote a)” value [4] was 22.89^a.

For [Cl][Fe]([Cl])[Cl] [Fe^3+], the “Average Selectivity Ratio” value (Helicobacter pylori [2]) was 1.00, the “MIC” value (Helicobacter pylori [2]; [9]) was >32 µg/mL and the “MIC, H. pylori” value (Helicobacter pylori [2]; Table 4) was >32/>32. For the same molecule, the “MIC, H. pylori, first of two values” (Helicobacter pylori [2]; Table 4) was >32/>32, the MIC, Klebsiella (Klebsiella) was > 32 µg/mL and the MIC, Ent faecalis (Enterococcus faecalis) was > 32 µg/mL. For the same molecule, the MIC, E. coli (Echerichia coli) was > 32 µg/mL, the MIC, Staphylococcus (aureus or Oxford Staph) (Staphylococcus aureus) was > 32 µg/mL and the MIC, Pseudomonas aeruginosa (Pseudomonas aeruginosa [3]) was > 32 µg/mL.

For [OH][Co][OH] [Co hydroxide], the “Mean ratio pH 4:pH 7, first value” (Helicobacter pylori [2]) was 0.058, the “MIC, Strain 1 (pH 4)” value (Helicobacter pylori [2]; Strain 1) was 0.11 and the “MIC, Strain 1 (pH 7)” value (Helicobacter pylori [2]; Strain 1) was 1.9. The “Mean ratio pH 4:pH 7, second value” (Helicobacter pylori [2]) was 0.029, the “MIC, Strain 2 (pH 4)” value (Helicobacter pylori [2]) was 0.11 and the “MIC, Strain 2 (pH 7)” value (Helicobacter pylori [2]; pH 7) was 3.80. The “MIC, pH 4-7” value (Helicobacter pylori [2]) was 0.125 mg/l and the “MIC, pH 7” value (Helicobacter pylori [2]; pH 7) was 2-4 mg/l.

With O=C([O-])[O-].[Co+2] [Co carbonate] the “Mean ratio pH 4:pH 7, first value” (Helicobacter pylori [2]) was 0.048, the “MIC, Strain 1 (pH 4)” value (Helicobacter pylori [2]; Strain 1) was 0.09 and the “MIC, Strain 1 (pH 7)” value (Helicobacter pylori [2]; Strain 1) was 1.09. For the same molecule, the “Mean ratio pH 4:pH 7, second value” (Helicobacter pylori [2]) was 0.018, the “MIC, Strain 2 (pH 4)” value (Helicobacter pylori [2]) was <0.02 and the “MIC, Strain 2 (pH 7)” value (Helicobacter pylori [2]; pH 7) was 1.09. For the same molecule, the “MIC, pH 4-7” value (Helicobacter pylori [2]) was 0.03-0.125 mg/l and the “MIC, pH 7” value (Helicobacter pylori [2]; pH 7) was 0.125-1 mg/l.

In the case of N[C@@H](CS)C(=O)O [cysteine, reference compound], the “effect on the MIC of cobalt against H. pylori” value (Helicobacter pylori [2]; weight ratio of 1:5 (cobalt:cysteine and/or methionine)) is reported as “not to affect the MIC of cobalt against H. pylori”.

In the case of Vitamin B12 [reference compound], the “activity against H. pylori” value (Helicobacter pylori [2]; strongly bound cobalt complex) is reported as “greatly reduced activity”.
